Assay results published in US20230271938A1, “BENZIMIDAZOLES FOR USE IN THE TREATMENT OF CANCER AND INFLAMMATORY DISEASES” (Capella Therapeutics, Inc., priority 2015, published 2023).

Legend:
BTK = BTK (Homo sapiens, UniProt Q06187); assay: Inhibition of BTK kinase; format: biochemical; conditions: 1% DMSO
From the text: The Z′-LYTE® biochemical assay is a fluorescence-based, coupled-enzyme assay based on the differential sensitivity of phosphorylated and non-phosphorylated peptides to proteolytic cleavage. A peptide substrate for a kinase is labeled with two fluorophores, one at each end, to form a FRET pair.
In the primary reaction, the kinase transfers the gamma-phosphate of ATP to a single tyrosine, serine, or threonine residue in the synthetic FRET-peptide substrate. In the secondary reaction, a site-specific protease recognizes and cleaves non-phosphorylated FRET-peptides. Cleavage disrupts FRET between the donor and acceptor fluorophores on the FRET-peptide, whereas uncleaved, phosphorylated FRET-peptides maintain FRET. An inhibitory activity of a compound is thus determined from its effect on the cleavage of the synthetic FRET-peptide substrate.
Inhibition of BMX, BTK, ITK, and TXK kinases by a test compound is determined in 50 mM HEPES, pH 7.5, 0.01% BRIJ-35, 10 mM MgCl2, and 1 mM EGTA in the presence of 1% DMSO by volume.
Inhibition of BMX, BTK, PIK3C-D, ITK, TEC, and TXK kinases by compound A2 was measured using one of the assays described in Examples 2A and 3A.

[1] = test system: HCC827 human NSCLC adenocarcinoma cells (mutant ERBB1, deletion of E746-A759 in exon 19); assay: Cell proliferation assay, HCC827; format: cell-based
Experimental: (§1) The biological activity of a test compound was determined using cell proliferation assays. The activity against wild-type ERBB 1 was determined using A431 human epidermoid carcinoma cells (ATCC) and human epidermal keratinocytes, neonatal, or HEKn cells (ATCC).
(§2) A431 cells were grown in DMEM (Invitrogen) supplemented with 10% FBS (Lonza), 1% penicillin-streptomycin, and 2 mM glutamine (Invitrogen). HEKn cells were grown in EPILIFE® (Invitrogen) supplemented with HKGS (Invitrogen). HCC827 and H1975 were cultured in RPMI1640 supplemented with 10% FBS (Lonza), 1% penicillin-streptomycin, and 2 mM glutamine (Invitrogen). Cells were maintained and propagated at 37° C. and 5% CO2 in a humidified cell culture incubator. Aliquots of cells from early passages were preserved for liquid nitrogen storage. Frozen vials of cells were thawed at 37° C. water bath. Cells were spun to remove freezing medium. The newly revived frozen cells were adapted in culture for 10 days before used for compound testing. Cells used in the assay were less than 20 subculture passages or 3 months in culture.
(§3) The test compounds were dissolved in dimethylsulfoxide (DMSO) and stored at -20° C. before testing. […] The cells were placed in a culture incubator overnight. Next day, test compounds in DMSO were added to the cells and placed back in the culture incubator for 72 hrs. In the meantime, the cell numbers at time zero of the compound treatment (T0) was measured by ENERCOUNT® (Codex BioSolutions). At the end of the compound treatment, the cell numbers were again measured by EnerCount as T72 values. The untreated controls (Ctrl) were cell numbers recorded from the 0.1% DMSO treatment. The percent growth inhibition by the test compound was calculated by the formula: (1- (T72-T0)/(Ctrl-T0)) x 100.
(§4) The results are summarized in Tables 1 and 2, wherein A represents a value no greater than 500 nM, B represents a value greater than 500 nM but no greater than 1 µM, C represents a value greater than 1 µM but no greater than 5 µM, and D represents a value greater than 5 µM; and wherein A′ represents a ratio of greater than 10, B′ represents a ratio of no greater than 10 but no less than 5, C′ represents a ratio of no greater than 5 but no less than 2, and D′ represents a ratio of no greater than 2.

[2] = test system: A431 human epidermoid carcinoma cells (wild-type ERBB1); assay: Cell proliferation assay, A431; format: cell-based; conditions: A-431, 72 hrs
Experimental: as §1, §2, §3, §4

[3] = test system: human epidermal keratinocytes, neonatal, or HEKn cells (wild-type ERBB1); assay: Cell proliferation assay, HEKn; format: cell-based; conditions: Keratinocyte, 72 hrs
Experimental: as §1, §2, §3, §4

Chain of BTK (Q06187 whole entry): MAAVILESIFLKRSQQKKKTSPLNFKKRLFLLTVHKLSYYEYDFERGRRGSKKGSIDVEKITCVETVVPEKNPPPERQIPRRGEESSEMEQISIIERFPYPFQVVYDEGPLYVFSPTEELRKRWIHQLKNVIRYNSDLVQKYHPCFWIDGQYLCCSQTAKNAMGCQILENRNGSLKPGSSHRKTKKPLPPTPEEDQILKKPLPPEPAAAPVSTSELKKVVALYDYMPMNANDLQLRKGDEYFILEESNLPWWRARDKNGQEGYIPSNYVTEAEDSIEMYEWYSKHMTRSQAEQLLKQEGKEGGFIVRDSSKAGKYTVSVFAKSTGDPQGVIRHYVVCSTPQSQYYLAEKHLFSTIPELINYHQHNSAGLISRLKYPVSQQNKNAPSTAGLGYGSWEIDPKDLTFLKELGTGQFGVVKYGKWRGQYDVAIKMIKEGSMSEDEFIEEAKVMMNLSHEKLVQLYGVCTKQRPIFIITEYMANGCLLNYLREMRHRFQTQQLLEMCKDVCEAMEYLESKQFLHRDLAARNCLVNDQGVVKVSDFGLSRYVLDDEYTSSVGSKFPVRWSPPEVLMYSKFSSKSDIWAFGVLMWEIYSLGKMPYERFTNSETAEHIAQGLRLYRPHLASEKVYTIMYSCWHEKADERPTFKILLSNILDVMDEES

IC50 (BTK): ≤ 10 nM
GI50 ([1]; Homo sapiens, HCC827 cells, 72 hrs): < 500 nM
GI50 [2]: 500 to 1000 nM
Compound: C=CC(=O)N1CCCC[C@@H](n2c(NC(=O)c3ccnc(C)c3)nc3cccc(OC4CCN(C(C)=O)CC4)c32)C1 [Compound A2, (R)-N-(7-((1-acetylpiperidin-4-yl)oxy)-1-(1-acryloylazepan-3-yl)-1H-benzo[d]imidazol-2-yl)-2-methylisonicotinamide]
Inhibition (BTK): A (A represents a value no greater than 10 nM or no less than 90% inhibition)
Ratio (Wild-type ERBB1/Mutant ERBB1) A431/HCC827 ([1]; GI50 ratio A431/HCC827): A′ (A′ represents a ratio of greater than 10)
Ratio (Wild-type ERBB1/Mutant ERBB1) HEKn/HCC827 ([1]; GI50 ratio HEKn/HCC827): A′ (A′ represents a ratio of greater than 10)
GI50 [3]: > 5000 nM
